{"source": "patent US12097222B2", "about": "“Methods for attenuating viral infection and for treating lung injury” (Spiritus Therapeutics, Inc., priority 2019, dated 2024)", "key": {"ER": {"test_system": "ER", "test": "ERE luciferase reporter (ER transcriptional activation) in hASCs"}, "MERS-CoV [1]": {"test_system": "MERS-CoV", "settings": "vs untreated animals; cited from earlier work"}, "MERS-CoV [2]": {"test_system": "MERS-CoV", "settings": "in vitro; cited from earlier work"}, "MSC migration": {"test_system": "MSC migration", "settings": "cited from earlier work"}, "MERS-CoV [3]": {"test_system": "MERS-CoV", "settings": "in vitro; cited from earlier work", "remark": "listed apart in the source"}, "CXCR4": {"target": "T1, CXCR4 (Mus musculus, UniProt P70658)", "T1 construct": "host or cells: BM-MSCs (endogenous receptor)", "T1 sequence (P70658 whole entry)": "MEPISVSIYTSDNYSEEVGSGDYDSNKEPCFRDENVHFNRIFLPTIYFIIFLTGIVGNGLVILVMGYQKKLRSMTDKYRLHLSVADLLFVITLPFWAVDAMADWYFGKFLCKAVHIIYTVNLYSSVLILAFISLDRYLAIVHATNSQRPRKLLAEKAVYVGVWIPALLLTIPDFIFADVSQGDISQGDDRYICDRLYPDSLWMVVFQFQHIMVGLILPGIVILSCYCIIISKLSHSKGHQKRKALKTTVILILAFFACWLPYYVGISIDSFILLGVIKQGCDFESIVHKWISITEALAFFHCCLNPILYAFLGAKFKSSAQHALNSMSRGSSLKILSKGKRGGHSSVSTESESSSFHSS", "settings": "cited from earlier work"}, "AR mRNA": {"test_system": "AR mRNA", "test": "AR mRNA expression in lungs of BLM-treated male mice"}, "[4]": {"test_system": "BLM-induced lung injury in 22-month old male C57BL/6 mice", "test": "BLM-induced pulmonary fibrosis in aged mice, ASCs given on day 12", "assay_type": "in vivo, mouse", "settings": "n = 4-5/group"}, "[5]": {"test_system": "myofibroblasts from mouse lungs 21 day post BLM", "test": "Double transfection of myofibroblasts with miR-29a mimic and miR-199-3p inhibitor", "assay_type": "cell-based", "settings": "mouse isolates (data not shown)"}, "[6]": {"test_system": "myofibroblasts isolated from lungs of patients with IPF", "test": "Double transfection of myofibroblasts with miR-29a mimic and miR-199-3p inhibitor", "assay_type": "cell-based, human"}, "[7]": {"settings": "lung tissue, day 21, ASCs on day 12 post-BLM"}, "[8]": {"settings": "double transfection miR-29a mimic + miR-199-3p inhibitor, 48 hours post-transfection"}}, "note": "Marks after values point to notes of the source that are not given here."}
{"compound": "C[C@]12CC[C@@H]3c4ccc(O)cc4CC[C@H]3[C@@H]1CC[C@@H]2O", "note": "[E2, 17β-estradiol]", "values": [{"measurement": "ER transcriptional activation (luciferase/B-gal)", "setting": "ER; hASCs from post-menopausal women", "result": "less than a two-fold change"}, {"measurement": "ER transcriptional activation (luciferase/B-gal)", "setting": "ER; hASCs from pre-menopausal women, E2 10 nM", "result": "greater than sixfold"}, {"measurement": "ER transcriptional activation (luciferase/B-gal)", "setting": "ER; hASCs from pre-menopausal women, E2 0.1 and 1 nm", "result": "greater than five-fold"}]}
{"compound": "C[C@]12CC[C@@H]3c4ccc(O)cc4C[C@@H](CCCCCCCCC[S+]([O-])CCCC(F)(F)C(F)(F)F)[C@H]3[C@@H]1CC[C@@H]2O", "note": "(stereo partly shown) [ICI 182,780, fulvestrant]", "values": [{"measurement": "block of E2-induced ER transcriptional activation", "setting": "ER; hASCs, with E2 1 or 10 nM", "result": "able to block activation by E2"}]}
{"compound": "COc1c(C)c2c(c(O)c1C/C=C(\\C)CCC(=O)O)C(=O)OC2", "note": "[MPA, Mycophenolic acid]", "values": [{"measurement": "disease outcome and viral loads", "setting": "MERS-CoV [1]", "result": "developed severe and/or fatal disease with higher mean viral loads"}, {"measurement": "inhibition activity against MERS-CoV", "setting": "MERS-CoV [2]", "result": "strong inhibition activity"}]}
{"compound": "COc1cccc(-c2cc(=O)c3ccccc3o2)c1N", "note": "[PD98059]", "values": [{"measurement": "effect on IGF-1-induced increase in MSC migration in response to SDF-1", "setting": "MSC migration", "result": "not"}]}
{"compound": "Cc1cccc(C)c1OCC(=O)N[C@@H](Cc1ccccc1)[C@@H](O)C[C@H](Cc1ccccc1)NC(=O)[C@H](C(C)C)N1CCCNC1=O", "note": "[lopinavir]", "values": [{"measurement": "50% effective cytotoxic concentration (EC50) against MERS-CoV", "setting": "MERS-CoV [3]", "result": "suboptimal"}]}
{"compound": "TN14003", "values": [{"measurement": "inhibition of SDF-1 promoted chemotactic migration of BM-MSCs", "setting": "CXCR4", "result": "completely inhibited"}]}
{"compound": "bleomycin sulfate [BLM]", "values": [{"measurement": "increase of AR mRNA in lungs", "setting": "AR mRNA; BLM-treated male mice", "result": "six-fold increase"}, {"measurement": "R mRNA expression/18s", "setting": "AR mRNA; lungs of BLM-treated male mice (n = 15) vs saline (n = 16), p < 0.05", "result": "2.0 ± 0.5"}, {"measurement": "Interval weight change at day 7 (mean ± SEM)", "setting": "[4]; day 7 after intratracheal BLM 2.0 U/kg (before ASC administration on day 12)", "result": "−14.2 ± 1.7", "unit": "%^a"}, {"measurement": "Overall weight change at day 21 (mean ± SEM)", "setting": "[4]; day 21 sacrifice, BLM 2.0 U/kg, ASCs 5×10^5 by tail vein on day 12", "result": "−27.3 ± 3.7", "unit": "%^aa"}, {"measurement": "Collagen type 1α1 mRNA/18s", "setting": "[4]; [7]", "result": "213 ± 63"}, {"measurement": "TNF-α mRNA/18S", "setting": "[4]; [7]", "result": "0.80 ± 0.180^a"}, {"measurement": "αvintegrin mRNA/18S", "setting": "[4]; [7]", "result": "1.09 ± 0.14^a"}]}
{"compound": "miR-29a mimic: plasmid containing miR-29a mimic AACCGATTTCAGATGGTGCT (SEQ ID NO: 1), Exiqon (described as plasmid-borne mimic, chemistry not given here)", "values": [{"measurement": "MMP-2 activity", "setting": "[5]", "result": "decreased MMP-2 activity"}, {"measurement": "Upregulation of miR-29a (RT-PCR)", "setting": "[6]; co-transfection with miR-199-3p inhibitor", "result": "> 5000", "unit": "fold"}, {"measurement": "MMP-2 activity (zymography)", "setting": "[6]; [8]", "result": "decreased MMP-2 activity"}]}
{"compound": "miR-199-3p inhibitor: plasmid containing miR-199-3p inhibitor AACCAATGTGCAGACTACTG (SEQ ID NO: 2), Exiqon (described as plasmid-borne inhibitor, chemistry not given here)", "values": [{"measurement": "CAV-1 expression", "setting": "[5]", "result": "increased CAV-1 expression"}, {"measurement": "downregulation of miR-199-3p expression (RT-PCR)", "setting": "[6]; co-transfection with miR-29a mimic", "result": "at least 100 fold"}, {"measurement": "CAV-1 expression (western)", "setting": "[6]; [8]", "result": "increased CAV-1 expression"}]}
